Twelve compounds from patent US10618903B2, “Heteroaryl substituted aminopyridine compounds” (BRISTOL-MYERS SQUIBB COMPANY, priority 2015, dated 2020) can be followed below.

The target in one series is IRAK4 (Homo sapiens (Human), UniProt Q9NWZ3). Description: IRAK4 Inhibition Assay. It counts as biochemical. To be noted: ATP 500 μM; IRAK4 0.6 nM. The method, boiled down:
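Enzyme 0.6 nM, ATP 500 μM, FL-peptide 1.5 μM, DMSO 1.6%; HEPES pH 7.2/MgCl2/Brij 35/DTT buffer. RT, 60 min, EDTA stop. Mobility-shift product/substrate ratio; % inhib vs no-enzyme and vehicle controls.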

In the next series the test system is Caco-2 cells. Description: Caco Permeability Assay. It counts as in vitro ADME. The conditions noted are these: Caco-2 cells, 3 μM compound. On the technique in general: Caco-2 monolayers are a common model of the intestinal barrier.
In series [1] the test system is IL-6 levels in human whole blood stimulated with a TLR2 agonist. Description: IRAK4 Whole Blood Assay (lipoteichoic acid/TLR2-stimulated IL-6). It counts as cell-based. To be noted: lipoteichoic acid 10 μg/mL, IL-6 readout. In outline: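 ACD-A-anticoagulated human whole blood was preincubated with compounds for 60 min at 37 °C under 5% CO2. It was then stimulated with 10 μg/mL lipoteichoic acid (final) in RPMI for 5 h. IL-6 in plasma supernatants was measured by flow cytometry bead assay.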

The nature of another series: Caco Permeability Assay. It counts as in vitro ADME. To be noted: human, Caco-2, Caco-2 cells, 3 μM compound.

Sequence of IRAK4 (Q9NWZ3 whole entry): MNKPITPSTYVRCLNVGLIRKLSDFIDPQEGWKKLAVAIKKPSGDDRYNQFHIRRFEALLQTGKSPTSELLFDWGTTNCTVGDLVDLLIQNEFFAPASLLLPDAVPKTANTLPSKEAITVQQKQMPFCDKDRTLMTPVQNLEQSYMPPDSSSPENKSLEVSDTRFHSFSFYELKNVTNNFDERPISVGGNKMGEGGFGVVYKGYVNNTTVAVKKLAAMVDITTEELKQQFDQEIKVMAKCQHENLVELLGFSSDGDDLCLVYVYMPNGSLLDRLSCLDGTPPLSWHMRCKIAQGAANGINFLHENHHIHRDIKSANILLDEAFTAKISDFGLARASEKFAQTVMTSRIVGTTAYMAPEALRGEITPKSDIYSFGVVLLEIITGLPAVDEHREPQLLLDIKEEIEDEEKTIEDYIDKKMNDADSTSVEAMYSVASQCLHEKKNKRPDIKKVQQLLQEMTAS

For `CC(C)(O)[C@H](F)CNC(=O)c1cnc(-c2cnn3cc(Cl)cnc23)cc1NCCC(F)(F)F` [Example 46, (R)-6-(6-chloropyrazolo[1,5-a]pyrimidin-3-yl)-N-(2-fluoro-3-hydroxy-3-methylbutyl)-4-((3,3,3-trifluoropropyl)amino) nicotinamide], the IC50 (usually the concentration that inhibits the measured activity by half) at IRAK4 came to 5 nM. Besides, the “Caco-2 Permeability” value in the series on Caco-2 cells is 24.1 ×10⁻⁶ cm/s. For the same compound, a half-maximal effect in series [1] (EC50) was put at 1970 nM.
As to `CCCNc1cc(-c2cnn3cc(Cl)cnc23)ncc1C(=O)NC[C@@H](F)C(C)(C)O` [Example 66, (R)-6-(6-chloropyrazolo[1,5-a]pyrimidin-3-yl)-N-(2-fluoro-3-hydroxy-3-methylbutyl)-4-(propylamino)nicotinamide], the IC50 on IRAK4 is 3 nM. Besides, the “Caco-2 Permeability” value in the series with Caco-2 cells is 21.2 ×10⁻⁶ cm/s.
`CC(C)(O)[C@H](F)CNC(=O)c1cnc(-c2cnn3cc(Cl)cnc23)cc1NC1CCC(F)C1` (stereo partly drawn) [Example 84, 6-(6-chloropyrazolo[1,5-a]pyrimidin-3-yl)-N—((R)-2-fluoro-3-hydroxy-3-methylbutyl)-4-((3-fluorocyclopentyl)amino)nicotinamide]: the IC50 at IRAK4 stood at 2 nM. Moreover, in the series on Caco-2 cells, the “Caco-2 Permeability” value was 12 ×10⁻⁶ cm/s. In series [1], the EC50 (in general, the concentration giving half of the maximal effect) worked out at 320 nM.
On to `CCCNc1cc(-c2cnn3cc(Cl)cnc23)ncc1C(=O)NC[C@@H](F)C(C)(C)O` [Example 159, (R)-6-(6-chloropyrazolo[1,5-a]pyrimidin-3-yl)-N-(2-fluoro-3-hydroxy-3-methylbutyl)-4-(propylamino)nicotinamide], for which the “Caco-2 Permeability” value in the series on Caco-2 cells was found to be 9.5 ×10⁻⁶ cm/s. This compound displayed an EC50 in series [1] (Homo sapiens) of 1000 nM.
In the case of `CC1(Nc2cc(-c3cnc4cc(Cl)cnn34)ncc2C(=O)NC[C@H](F)C(C)(C)O)CC1` [Example 207, (S)-6-(7-chloroimidazo[1,2-b]pyridazin-3-yl)-N-(2-fluoro-3-hydroxy-3-methylbutyl)-4-((1-methylcyclopropyl)amino)nicotinamide], the “Caco-2 Permeability” value in the series on Caco-2 cells stood at 9.7 ×10⁻⁶ cm/s. Further, it took 260 nM to reach a half-maximal effect in series [1] (EC50).
Regarding `CC(C)(O)[C@H](F)CNC(=O)c1cnc(-c2cnn3cc(C#N)cnc23)cc1Nc1cnn(CC(F)(F)F)c1` [Example 241, (R)-6-(6-cyanopyrazolo[1,5-a]pyrimidin-3-yl)-N-(2-fluoro-3-hydroxy-3-methylbutyl)-4-((1-(2,2,2-trifluoroethyl)-1H-pyrazol-4-yl)amino)nicotinamide], the IC50 at IRAK4 amounted to 2 nM. In addition, the “Caco-2 Permeability” value in the series with Caco-2 cells is less than 1.5 ×10⁻⁶ cm/s. The same compound came in with an EC50 in series [1] of 130 nM.
Turning to `CC(C)(F)Cn1cc(Nc2cc(-c3cnc4cc(C#N)cnn34)ncc2C(=O)NC[C@@H](F)C(C)(C)O)cn1` [Example 279, (R)-6-(7-cyanoimidazo[1,2-b]pyridazin-3-yl)-4-((1-(2-fluoro-2-methylpropyl)-1H-pyrazol-4-yl)amino)-N-(2-fluoro-3-hydroxy-3-methylbutyl)nicotinamide], the IC50 at IRAK4 came out at 1 nM. For the same compound, the Papp (in general, a coefficient for how fast a substance crosses the barrier) at 2 h, 3 µM in “Caco Permeability Assay” was less than 1.5 ×10⁻⁶ cm/s. In series [1] (Homo sapiens), this compound returned an EC50 of 780 nM.
The corresponding values for `CC(C)(O)[C@H](F)CNC(=O)c1cnc(-c2cnc3cc(C#N)cnn23)cc1Nc1cc2n(n1)CCN(CC(F)F)C2` [Example 280, (R)-6-(7-cyanoimidazo[1,2-b]pyridazin-3-yl)-4-((5-(2,2-difluoroethyl)-4,5,6,7-tetrahydropyrazolo[1,5-a]pyrazin-2-yl)amino)-N-(2-fluoro-3-hydroxy-3-methylbutyl)nicotinamide] are 6 nM, less than 1.5 ×10⁻⁶ cm/s and 330 nM.
Take `CC(C)(O)[C@H](F)CNC(=O)c1cnc(-c2cnc3cc(C#N)cnn23)cc1Nc1cnn(CCCF)c1` [Example 281, (R)-6-(7-cyanoimidazo[1,2-b]pyridazin-3-yl)-N-(2-fluoro-3-hydroxy-3-methylbutyl)-4-((1-(3-fluoropropyl)-1H-pyrazol-4-yl)amino)nicotinamide]: on IRAK4, the IC50 was found to be 2 nM. Further, the Papp at 2 h, 3 µM in the series “Caco Permeability Assay” was less than 1.5 ×10⁻⁶ cm/s. This compound yielded an EC50 in series [1] (Homo sapiens) of 290 nM.
The corresponding values for `CC(C)(O)[C@H](F)CNC(=O)c1cnc(-c2cnc3cc(C#N)cnn23)cc1Nc1cnn(C2CC2)c1` [Example 284, (R)-6-(7-cyanoimidazo[1,2-b]pyridazin-3-yl)-4-((1-cyclopropyl-1H-pyrazol-4-yl)amino)-N-(2-fluoro-3-hydroxy-3-methylbutyl)nicotinamide] are 2 nM, less than 1.5 ×10⁻⁶ cm/s and 210 nM.
The corresponding values for `CC(C)(O)[C@H]1CC[C@H](NC(=O)c2cnc(-c3cnc4cc(C#N)cnn34)cc2Nc2cnn(C3CC3)c2)CC1` [Example 286, 6-(7-cyanoimidazo[1,2-b]pyridazin-3-yl)-4-((1-cyclopropyl-1H-pyrazol-4-yl)amino)-N-((1r,4r)-4-(2-hydroxypropan-2-yl)cyclohexyl) nicotinamide] are 2 nM, 5.5 ×10⁻⁶ cm/s and 180 nM.
The corresponding values for `CC(C)n1cc(Nc2cc(-c3cnc4cc(C#N)cnn34)ncc2C(=O)NCCC(C)(C)O)cn1` [Example 287, 6-(7-cyanoimidazo[1,2-b]pyridazin-3-yl)-N-(3-hydroxy-3-methylbutyl)-4-((1-isopropyl-1H-pyrazol-4-yl)amino)nicotinamide] are 9 nM, 1.8 ×10⁻⁶ cm/s and 450 nM.
